The text below walks through data of patent US20080146555A1, “Uses of Kinase Inhibitors and Compositions Thereof” (GPC Biotech, Inc, priority 2004, published 2008).

Values joined by “and” are separate entries in the source; they are usually repeats but may differ in a detail not shown here. Equal values may be shown once. Where a name gives a salt, the structure may show the parent alone. Read-outs that look alike come from different tables or passages of the source. Some results are limits rather than exact numbers.

The subject of one assay is CEM/C2. Nature of the assay: SRB cytotoxicity, camptothecin resistant cells. Type of assay: cell-based, human. The conditions noted are these: for IC50: Homo sapiens, CEM/C2, 72 h, SRB. As for the experimental part: In these experiments, the P-glycoprotein expressing NCI-Adr resistant subline (Vickers et al., 1989. Mol Endocrinology 3 (1):157-164) was used. […] Briefly, cells were plated in 96 well dishes 24 hours prior to compound addition. Where noted, they were exposed to verapamil for 4 hours prior to compound addition and then throughout the treatment period (72 hours). The assay was terminated with the addition of cold TCA to a final concentration of 10% and the plates were incubated for one hour at 4° C. The plates were then washed 5 times with water and 100 μl of a Sulforhodamine B solution (4%) was added to each well. The plate was then incubated for 10 minutes at room temperature before removal of unbound dye by washing with 1% acetic acid.
The Camptothecin resistant CEM/C2 cells were derived from the T lymphoblastoid leukemia cell line CCRF/CEM by selection in the presence of Camptothecin in vitro (Kapoor et al., 1995. Oncology Research 7; 83-95, ATCC).
The effects of A37 and B16 were evaluated in the CCRF/CEM and CEM/C2 cells using the same SRB assay as described above, with 72-hour drug exposure.

The target of the next assay is Cdk3 (Homo sapiens, UniProt Q00526). The assay is described as follows: Cdk3 inhibition. Type of assay: biochemical. The source says: (§1) Further inhibition results for subject compounds of the invention against other CDKs and further kinases are shown in Table 5, Table II and described in Example 6.
Sequence of Cdk3 (Q00526 whole entry, species assumed): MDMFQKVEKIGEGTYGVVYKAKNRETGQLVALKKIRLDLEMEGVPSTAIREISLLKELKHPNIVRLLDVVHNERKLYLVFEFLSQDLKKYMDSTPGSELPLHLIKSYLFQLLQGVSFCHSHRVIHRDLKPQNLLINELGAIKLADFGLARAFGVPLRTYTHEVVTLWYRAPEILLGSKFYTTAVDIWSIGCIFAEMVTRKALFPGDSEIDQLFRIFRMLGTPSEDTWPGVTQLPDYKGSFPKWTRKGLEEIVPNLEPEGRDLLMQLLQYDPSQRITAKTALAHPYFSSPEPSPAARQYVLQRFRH
Sequence of Cdk3 (P24864 whole entry partner, species assumed): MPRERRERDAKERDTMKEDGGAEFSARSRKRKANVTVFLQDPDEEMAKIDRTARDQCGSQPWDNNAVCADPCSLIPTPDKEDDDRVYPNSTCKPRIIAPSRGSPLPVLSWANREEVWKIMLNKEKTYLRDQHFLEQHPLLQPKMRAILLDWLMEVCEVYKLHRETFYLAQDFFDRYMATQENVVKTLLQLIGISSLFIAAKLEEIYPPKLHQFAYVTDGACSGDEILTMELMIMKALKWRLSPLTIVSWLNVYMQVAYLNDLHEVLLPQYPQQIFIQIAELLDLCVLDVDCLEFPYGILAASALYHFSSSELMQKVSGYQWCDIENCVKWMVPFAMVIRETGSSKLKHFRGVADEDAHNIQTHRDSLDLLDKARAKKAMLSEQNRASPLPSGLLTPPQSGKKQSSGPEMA
(§2) Table 3, Table 4, Table 5 and Table II show the results obtained for inhibition of a broad range of such kinases for subject compounds of the invention.

The next assay deals with T1, JNK3 (Homo sapiens, UniProt P53779).
T1 construct: purchased Upstate 14-501
T1 sequence (P53779 39-464): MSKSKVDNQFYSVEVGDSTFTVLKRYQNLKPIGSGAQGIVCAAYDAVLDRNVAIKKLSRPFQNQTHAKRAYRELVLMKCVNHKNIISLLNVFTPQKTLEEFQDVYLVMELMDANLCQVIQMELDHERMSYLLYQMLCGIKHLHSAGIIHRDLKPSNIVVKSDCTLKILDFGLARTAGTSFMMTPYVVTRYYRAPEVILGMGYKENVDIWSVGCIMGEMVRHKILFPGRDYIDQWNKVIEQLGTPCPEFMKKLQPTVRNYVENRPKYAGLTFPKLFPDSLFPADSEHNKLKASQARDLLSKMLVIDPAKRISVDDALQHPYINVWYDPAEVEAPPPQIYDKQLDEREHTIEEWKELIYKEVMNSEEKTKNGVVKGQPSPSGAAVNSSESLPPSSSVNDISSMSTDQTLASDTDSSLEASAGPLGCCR
The assay is described as follows: JNK3 kinase assay. Type of assay: biochemical. The protocol: • 1. 10× Reaction Buffer: 500 mM Tris-HCl pH 7.5, 1 mM EGTA, 1% 2-mercaptoethanol. • 2. Enzyme Dilution Buffer (EDB): 50 mM Tris-HCl pH 7.5, 0.1 mM EGTA, 0.1% 2-mercaptoethanol, 1 mg/ml BSA, 0.03% Brij-35. • 3. JNK3/SAPK1b, active: Dilute to 4-24 ng/μl with EDB. Use 2.5 μl per assay point. • 4. ATF2 (amino acids 19-96) (Catalog #12-367): Prepare a 1.08 mg/ml stock. Use 2.5 μl per assay point for a final concentration of 3 μM per assay point. • 5. [γ-^32P]ATP: Stock 1 mCi/100 μl (3000 Ci/mmol, obtained from PerkinElmer, Cat. # BLU002A). Make 10 μl aliquots (100 μCi/vial). Before starting the assay, dilute an aliquot to 1 μCi/μl with 90 μl of 75 mM MgCl2 and 500 μM cold ATP in 20 mM MOPS, pH 7.2, 25 mM β-glycerol phosphate, 5 mM EGTA, 1 mM sodium orthovanadate, 1 mM dithiothreitol.
• 1. Add 2.5 μl of 10× Reaction Buffer per assay. • 2. Add 2.5 μl of ATF2 (amino acids 19-96). • 3. Add 2.5 μl (10-60 ng) JNK3/SAPK1b, active. • 4. Add 7.5 μl of sterile, distilled water. • 5. Add 10 μl of the diluted [γ-^32P]ATP mixture. • 6. Incubate for 10 minutes at 30° C. • 7. Transfer a 20 μl aliquot onto the center of a 2 cm×2 cm P81 paper. • 8. Wash the assay squares three times for 5 minutes with 0.75% phosphoric acid. • 9. Wash the assay squares once for 5 minutes with acetone. • 10. Transfer the assay squares to vial and add 5 ml scintillation cocktail. • 11. Read in scintillation counter. Compare cpm of enzyme samples to cpm of control samples that contain background control.

The target in a further assay is T2, CDKs.
T2 construct: IC50 range over CDK1-7; other: 6 CDKs / CDK1-7; Cdk2/his-cyclin Eshort was expressed in Sf9 cells; Cdk2/cyclin A, cdk4/cyclin D1, and cdk6/cyclin D2 were expressed in Sf9 cells
The assay is described as follows: Kinase panel, CDKs (average/range). Type of assay: biochemical.

For the next assay, the system named is A129 cp80. The assay is described as follows: SRB cytotoxicity, cisplatin resistant cells. Type of assay: cell-based, human. The conditions noted are these: for IC50: Homo sapiens, 72 h, SRB.
The next assay deals with T3, c-Kit (Homo sapiens, UniProt P10721).
T3 construct: purchased ProQinase (printed 'ProQuinase', Freiburg, Germany)
T3 sequence (P10721 26-976): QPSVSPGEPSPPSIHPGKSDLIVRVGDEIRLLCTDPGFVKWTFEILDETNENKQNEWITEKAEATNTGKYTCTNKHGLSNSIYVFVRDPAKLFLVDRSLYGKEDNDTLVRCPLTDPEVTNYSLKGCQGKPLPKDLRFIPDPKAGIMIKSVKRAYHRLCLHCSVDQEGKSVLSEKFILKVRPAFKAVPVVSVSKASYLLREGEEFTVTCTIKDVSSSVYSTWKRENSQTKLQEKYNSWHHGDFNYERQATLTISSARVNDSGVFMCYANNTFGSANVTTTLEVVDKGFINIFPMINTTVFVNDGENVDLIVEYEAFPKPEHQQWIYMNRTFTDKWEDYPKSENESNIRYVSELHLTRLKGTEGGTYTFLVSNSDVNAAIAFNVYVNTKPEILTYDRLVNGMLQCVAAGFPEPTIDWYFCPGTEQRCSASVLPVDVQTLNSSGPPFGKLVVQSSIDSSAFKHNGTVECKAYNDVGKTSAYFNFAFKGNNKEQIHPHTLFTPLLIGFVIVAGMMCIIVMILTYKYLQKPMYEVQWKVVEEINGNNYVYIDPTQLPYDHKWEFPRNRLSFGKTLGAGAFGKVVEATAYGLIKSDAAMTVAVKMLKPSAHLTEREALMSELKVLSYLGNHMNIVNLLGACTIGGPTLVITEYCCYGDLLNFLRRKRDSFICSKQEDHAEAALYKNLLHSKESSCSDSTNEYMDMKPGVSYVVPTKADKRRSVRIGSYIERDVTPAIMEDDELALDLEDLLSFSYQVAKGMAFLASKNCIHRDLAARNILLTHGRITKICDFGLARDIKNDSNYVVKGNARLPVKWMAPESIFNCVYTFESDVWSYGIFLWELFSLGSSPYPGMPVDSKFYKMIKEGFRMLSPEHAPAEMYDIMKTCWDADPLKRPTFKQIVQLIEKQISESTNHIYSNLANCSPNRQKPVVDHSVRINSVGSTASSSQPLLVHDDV
The assay is described as follows: c-Kit kinase assay (ProQinase). Type of assay: biochemical. The conditions noted are these: read-out: KIT Inhibition (IC50). The protocol:
• c-kit can be assayed, for example, using the PanQinase Activity Assay or ProQuinase (Freiburg, Germany). Briefly:
Assay buffer-60 mM HEPES-NaOH, pH 7.5, 3 mM MgCl2, 3 mM MnCl2, 3 uM Na-orthovanadate, 1.2 mM DTT, 50 ug/ml PEG 20000, 1 uM [γ-^33P] ATP (approx. 5×10^5 cpm per well) • Reaction cocktail-20 ul assay buffer, 5 ul ATP, 5 ul test compound (in 10% DMSO), 10 ul substrate/10 ul enzyme=100 ng (pre-mixed). • The reaction cocktails are incubated at 30° C. for 80 minutes and terminated with addition of 50 ul 2% H3PO4. The plates are aspirated and washed two times with 200 ul H2O or 200 ul NaCl. Incorporation of radiolabelled substrate is determined with a microplate scintillation counter such as described in the Technical Note above.

The next assay deals with Cdk5 (Homo sapiens, UniProt Q00535). The assay is described as follows: Cdk5 inhibition. Type of assay: biochemical.
Sequence of Cdk5 (Q00535 whole entry, species assumed): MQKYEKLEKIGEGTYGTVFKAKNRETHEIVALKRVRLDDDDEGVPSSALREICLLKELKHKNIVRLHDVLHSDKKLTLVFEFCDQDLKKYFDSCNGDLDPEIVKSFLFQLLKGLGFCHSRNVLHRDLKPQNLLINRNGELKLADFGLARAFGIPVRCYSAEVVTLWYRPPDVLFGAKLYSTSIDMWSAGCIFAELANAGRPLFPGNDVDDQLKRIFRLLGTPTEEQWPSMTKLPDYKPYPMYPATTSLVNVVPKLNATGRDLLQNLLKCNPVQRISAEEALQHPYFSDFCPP
Sequence of Cdk5 (Q15078 whole entry partner, species assumed): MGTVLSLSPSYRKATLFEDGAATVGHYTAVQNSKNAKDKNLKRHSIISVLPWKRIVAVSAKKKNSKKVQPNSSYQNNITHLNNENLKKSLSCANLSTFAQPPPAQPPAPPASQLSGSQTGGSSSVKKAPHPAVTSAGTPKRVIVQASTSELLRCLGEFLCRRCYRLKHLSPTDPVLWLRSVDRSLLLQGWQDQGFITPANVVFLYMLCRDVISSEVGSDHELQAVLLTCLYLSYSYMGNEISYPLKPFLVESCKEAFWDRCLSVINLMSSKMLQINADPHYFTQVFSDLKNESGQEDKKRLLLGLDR
Source text: as §1, §2

[1] abbreviates: kinase panel, 10 μM ATP, read-out: JNK3 IC50.
Where [2] appears, read: read-out: MAPK10 Inhibition (IC50).
The mark [3] stands for this setting: 6 CDKs / CDK1-7, read-out: average IC50 for CDKs.

Consider `COCCN1CCN(Cc2ccc(-c3n[nH]c4c3C(=O)c3c(NC(=O)NN5CCOCC5)cccc3-4)cc2)CC1` [Compound B16, N-[3-(4-{[4-(2-methoxyethyl)piperazinyl]methyl}phenyl)-4-oxoindeno[2,3-d]pyrazol-5-yl](morpholin-4-ylamino)carboxamide dihydrochloride], for which, in the assay on CEM/C2, the “RR (relative resistance) CEM/C2 vs CEM” value worked out at 1.01. In addition, the half-inhibitory concentration (IC50) in the assay with CEM/C2 is 25.3 nM; at Cdk3 it was less than 5 nM; at JNK3 (setting [1]) it was less than 100 nM; on JNK3 (setting [2]), less than 50 nM; at CDKs (setting [3]), roughly 17 nM; in the assay on A129 cp80 it was 4.7 nM. The half-maximal inhibitory concentration (IC50) at c-Kit is less than 500 nM; on Cdk5 it was less than 5 nM. Further, the “RR (relative resistance) A129 cp80 vs A129” value with A129 cp80 is 0.5.

For `CC(C)N1CCN(C(=O)COc2ccc(-c3n[nH]c4c3C(=O)c3c(NC(=O)NN5CCOCC5)cccc3-4)cc2)CC1` [Compound A37], in the assay with CEM/C2, the “RR (relative resistance) CEM/C2 vs CEM” value was 0.72. Also, the 50% inhibitory concentration (IC50) in the assay with CEM/C2 is 15.3 nM; against Cdk3 it was less than 5 nM; at JNK3 (setting [1]), 10 to 100 nM; at JNK3 (setting [2]) it was less than 50 nM; at CDKs (setting [3]), ~42 nM and 42 nM; at CDKs (read-out: IC50 range over CDK1-7), 3 to 155 nM. Also, the IC50 with A129 cp80 is 4 nM; at c-Kit, less than 500 nM; against Cdk5 it was less than 5 nM. Moreover, the “RR (relative resistance) A129 cp80 vs A129” value in the assay with A129 cp80 was 0.7.

As usually defined, the IC50 is the midpoint of a concentration-inhibition curve.
